Data taken from PMC6259308, “Preparation and Properties of New Co-Crystals of Ibandronate with Gluco- or Galactopyranoside Derivatives” (Molecules, 2010).

Columns and labels:
[1] = In vitro screening of absorption (PAMPA experiments); format: in vitro ADME
Description: The permeability of ibandronate (as a control sample) and samples 1-3, 6 and 7 was tested. To retain interactions of both components in the solution it is recommended to increase the concentration of the counterion in the applied mixture. Therefore samples 1-3, 6 and 7 with the addition of sixfold quantity of phenyl-β-D-galactopyranoside to the co-crystal solution were also evaluated.
The permeability of generated co-crystals was evaluated in vitro, using a vertical PAMPA (Parallel Artificial Membrane Permeability Assay) system (BD GentestTMPre-Coated PAMPA Plate System, 96 wells, http://www.bdbeurope.com). The donor samples were prepared by dissolving the tested potential co-crystals in 0.01 M HCl, and than pH was adjusted by bicarbonate buffer to pH 7.4. The control sample was prepared in the same manner from ibandronate standards. A carbonate buffer saline (physiological solution) with pH 7.4 was used as a receptor phase. About 0.5 h before the experiment the PAMPA system was taken out from the freezer and warmed up to the ambient temperature. The receptor phase (200 μL/well) was pipetted into the upper wells. The donor phase was pipetted into the lower ones (300 μL/well). After the incubation time (5 h) 10 μL of the acceptor phase was taken from each well and mixed with physiological solution (990 μL). At least five determinations were performed. […]

[2] = cited from earlier work

## CCCCCN(C)CCC(O)(P(=O)([O-])O)P(=O)(O)O.[Na+] [IBN monosodium salt, sodium hydrogen {1-hydroxy-3-[methyl(pentyl)amino]-1-phosphonopropyl}phosphonate]
[1]; PAMPA, pH 7.4, 5 h
  Absorption in PAMPA (in words, relative to ibandronate control): highest absorption
[1]; donor and receptor phase pH 7.4, incubation 5 h, calculated from 5 experiments, samples 1a-7a with sixfold quantity of phenyl-β-D-galactopyranoside added to the co-crystal solution
  Concentration in acceptor solutions of PAMPA plates, Conc.: 2400 ng/mL
[2]; organic solvents
  Solubility in organic solvents: practically insoluble
[2]; water
  Solubility in water: freely soluble
